US8097650B2, “Method of treating a condition associated with phosphorylation of TASK-1” (The Trustees of Columbia University In The City of New York, priority 2005, dated 2012)
Read-outs that look alike come from different tables or passages of the source.

Assays:
[1] = target: T1, TASK-1 (Mus musculus, UniProt O35111); test: C-PAF-sensitive steady-state current in murine ventricular myocytes (voltage clamp); assay type: cell-based
T1 construct: endogenous in cells; host or cells: adult mouse ventricular myocytes (C57/B16 background; WT or PAFR KO)
T1 sequence (O35111 whole entry): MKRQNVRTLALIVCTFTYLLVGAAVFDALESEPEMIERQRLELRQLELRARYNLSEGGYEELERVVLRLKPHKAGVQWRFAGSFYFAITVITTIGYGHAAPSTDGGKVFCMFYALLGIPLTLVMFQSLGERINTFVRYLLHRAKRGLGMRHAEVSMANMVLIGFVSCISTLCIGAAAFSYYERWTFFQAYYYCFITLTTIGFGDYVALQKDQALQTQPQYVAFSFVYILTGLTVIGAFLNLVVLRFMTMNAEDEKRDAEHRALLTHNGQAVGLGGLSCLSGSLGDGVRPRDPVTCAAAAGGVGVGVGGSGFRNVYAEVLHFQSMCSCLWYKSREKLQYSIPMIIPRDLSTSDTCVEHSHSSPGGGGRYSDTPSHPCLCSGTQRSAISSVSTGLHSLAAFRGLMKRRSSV
Method: (§1) Adult mice, 2-3 months old, were anesthetized with ketamine/xylazine and their hearts were removed according to protocols approved by the Columbia University-IACUC. Experiments were performed on single rod-shaped, quiescent ventricular myocytes dissociated using a standard retrograde collagenase perfusion (Kuznetsov V et al. (1995) Circ Res 76: 40-52) from hearts of mice that were either wild-type (WT), or PAFR knockouts (KO). Both WT and KO mice were bred on a C57/B16 background. The derivation of the KO mice has been described previously (Hoffman, B F et al.(1996) J Cardiovasc Electrophysiol 7:120-133).
(§2) Prior to electrophysiological measurements, cells were placed into the perfusion chamber and superfused at room temperature with Tyrode's buffer (in mM: NaCl, 140; KCl, 5.4; CaCl2 1; MgCl2, Hepes, 5; Glucose, 10; pH 7.4). The whole-cell patch clamp technique was used with pipettes having resistances of 1.5-3 MΩ (intracellular solution, in mM: aspartic acid, 130; KOH, 146; NaCl, 10; CaCl2, 2; EGTA, 5; Hepes, 10; MgATP, 2; pH 7.2). Solutions of C-PAF, the PAFR antagonist, CV-6209 (Biomol) and the PKC inhibitor, bisindolylmaleimide I (BIM I; Calbiochem) were prepared in water and diluted in Tyrode's before use. […] A custom-made fast perfusion device was used to exchange the solution around the cell within 1 s (DiFrancesco et al. (1986) J Physiol 377: 61-88).
(§3) Current and voltage protocols were generated using Clampex 7.0 software applied by means of an Axopatch 200B amplifier and a Digidata 1200 interface (Axon Instruments). During voltage clamp, steady state current traces were acquired at 500 Hz and final filtered at 10 Hz. During current clamp, membrane voltage was acquired at 5 KHz and filtered at 1 KHz. Ramp clamps were conducted by imposing a voltage ramp (14 mV/s) at a 500 Hz acquisition rate with 1 kHz filtering. Data were analyzed using pCLAMP 8.0 (Axon) and Origin 6.0 (Microcal) and are presented as mean±SEM. Steady-state current was determined by computer calculation of average current over a time period of at least 5 s. In all experiments, the n value indicates the number of myocytes studied, and represents pooled data from at least 2 (voltage clamp) or 3 (current clamp) animals. Student's t-test, one-way ANOVA and χ^2 tests were used; a value of p<0.05 was considered statistically significant. Records have been corrected for the junction potential, which was measured to be 9.8 mV.

[2] = target: T1, TASK-1; test: Methanandamide-sensitive current in murine ventricular myocytes; assay type: cell-based
Source text: as §2
Current and voltage protocols were generated using Clampex 7.0 software applied by means of an Axopatch 200B amplifier and a Digidata 1200 interface (Axon Instruments). During voltage clamp, steady state current traces were acquired at 500 Hz and final filtered at 10 Hz. […] Data were analyzed using pCLAMP 8.0 (Axon) and Origin 6.0 (Microcal) and are presented as mean±SEM. Steady-state current was determined by computer calculation of average current over a time period of at least 5 s. […] Records have been corrected for the junction potential, which was measured to be 9.8 mV.

[3] = tested on: quiescent myocytes; test: Spontaneous activity in quiescent mouse ventricular myocytes (current clamp); assay type: cell-based
Method: as §1, §2, §3

[4] = tested on: murine TASK-1; test: TASK-1 current expressed in CHO cells (whole-cell ramp clamp); assay type: cell-based, mouse
Method: The TASK-1 clone (provided by Professor Y. Kurachi, Osaka University) was co-transfected in CHO cells with CD8 plasmid using Lipofectamine Plus (Invitrogen) according to the manufacturer's instructions. 48 h later cells were transferred to the electrophysiology chamber and anti-CD8 coated beads (Dynal Biotech) were added to identify CD8 expressing cells. Expressing cells were voltage clamped using a ramp clamp (see below). CHO cells were used in these experiments, in part, because they express endogenous PAFR.
Chinese hamster ovary cells (CHO) were grown in F-12 medium supplemented with 10% fetal bovine serum. Twenty-four hours prior to transfection, cells were seeded into 6 well plates at 80-90% of confluence. Transfections were carried out with the GeneJammer transfection reagent (Stratagene) according to the manufacturer's instructions. Briefly, cells were washed with PBS and their medium replaced with supplemented F-12 medium (900 μl/well). For each well, GeneJammer (6 μl) was incubated with Opti-MEM (90 μl) followed by the addition of DNA (1 μg). This mixture was then added to the wells and 3 h later an additional 2 ml of supplemented F-12 medium was added. After incubating overnight, the cells were washed and their medium replaced.
Cells were either co-transfected with pCMV-TASK1 together with pEGFP-C1 (1 μg total, 3:1) or transfected with […] or T381A-pTIE (1 μg). 48 h after the transfection the cells were checked under the microscope for green fluorescence. Approximately 20% of the cells were positive for EGFP and these were then used for patch-clamp experiments. Due to the culture-to-culture variability in the expression of TASK-1 current, most comparisons were made on matched controls from the same transfection. Summary results were then obtained by pooling data from several different culture preparations.
The myocyte suspension or the coverslip with CHO cells was placed into a perfusion chamber, mounted on the stage of an inverted microscope. Unless otherwise indicated, CHO cells were superfused at room temperature with standard external Tyrode's buffer, containing (mM): NaCl, 140; KCl, 5.4; CaCl2, 1; MgCl2, 1; HEPES, 5; glucose, 10; adjusted to pH 7.4. Recordings were begun after the current reached a stable baseline (usually 3 to 4 min after initial cell rupture). In myocytes, TASK-1 current is small and exists in the presence of numerous larger K^+ currents. In order to increase the inward component of TASK-1 current and to block other potassium currents in myocytes, a modified high K^+ external solution (modified Tyrode's) was used to reduce outward rectification of TASK-1 current. The composition of this solution-was (in mM): NaCl, 100; KCl, 50; CaCl2, 1; MgCl2, 1; HEPES, 5; glucose, 10; tetraethylammonium (TEA), 1; CsCl, 5; adjusted to pH 7.4. Membrane potential and current were measured in the whole cell configuration using borosilicate glass pipettes with a tip resistance between […] and filled with a pipette solution containing (mM): aspartic acid, 130; KOH, 146; NaCl, 10; CaCl2, 2; EGTA, 5; HEPES, 10; MGATP, 2; pH 7.2. The stock solutions of C-PAF and of the PKC inhibitor, bisindolylmaleimide (BIM-I; Calbiochem), were prepared in water and diluted to the final concentrations in Tyrode's or modified Tyrode's, as appropriate. The PKC activator, PMA, was prepared in DMSO and then diluted in Tyrode's. […] Myocytes treated with the peptides were monitored continuously beginning immediately after rupture to detect the occurrence of any arrhythmias during dialysis of the peptide. Application of C-PAF to cells treated with the inhibitor peptide was started after the peptide had been permitted to dialyse into the cell (8-10 min after rupture for CHO or 10-12 min after rupture for myocytes).
The current and the voltage protocols were generated using Clampex 8.0 software applied by means of an Axopatch 200-B and a Digidata 1200 interface (Axon Instruments). […]

[5] = target: PKC; conditions: cited from earlier work
[6] = tested on: murine TASK-1 T381A mutant; test: T381A mutant TASK-1 current in CHO cells; assay type: cell-based, mouse
Method: pCMV-TASK1 (cTBAK) consists of a 1.9 kb sequence of murine TASK-1 inserted in pcDNA3.1 (a kind gift of Dr. Yoshihisa Kurachi, University of Osaka, Japan) and has been previously described (Leonoudakis D et al. (1998) J Neurosci 18: 868-877). pEGFP-C1 and pIRES-EGFP were purchased from Clontech. pTIE (TASK1-IRES-EGFP) was constructed by inserting a 1.9 kb EcoR1 fragment from pCMV-TASK1 into EcoR1 digested pIRES-EGFP. Site-directed mutagenesis was performed on pTIE using the Quik-Change kit (Stratagene) following the manufacturer's instructions. […]
Cells were either co-transfected with pCMV-TASK1 together with pEGFP-C1 (1 μg total, 3:1) or transfected with […] or T381A-pTIE (1 μg). 48 h after the transfection the cells were checked under the microscope for green fluorescence. […]
The myocyte suspension or the coverslip with CHO cells was placed into a perfusion chamber, mounted on the stage of an inverted microscope. […] Membrane potential and current were measured in the whole cell configuration using borosilicate glass pipettes with a tip resistance between […] and filled with a pipette solution containing (mM): aspartic acid, 130; KOH, 146; NaCl, 10; CaCl2, 2; EGTA, 5; HEPES, 10; MGATP, 2; pH 7.2. […] Myocytes treated with the peptides were monitored continuously beginning immediately after rupture to detect the occurrence of any arrhythmias during dialysis of the peptide. […]

[7] = tested on: human TASK-1 T383A; test: Human TASK-1 T383A mutant current in CHO cells; assay type: cell-based; conditions: Tyrode's pH 8, ramp
Source text: FIGS. 24A-24B. Mutations in human TASK-1 remove the sensitivity to C-PAF and PMA when the channel is expressed in CHO cells. Two human TASK-1 (hTASK-1) mutants in which either serine-358 was converted to alanine (S358A) or threonine-383 was converted to alanine (T383A) were generated and separately expressed in CHO cells. The C-PAF-sensitive (24A) and PMA-sensitive currents (24B) were obtained in Tyrode's at pH 8 using a ramp protocol in […] configuration, essentially as described in FIG. 15. […] However, the S358A channel was not inhibited in the presence of C-PAF (24A) and the T383A channel was not inhibited by PMA (24B).

[8] = tested on: adult rat ventricular myocytes; test: Methanandamide-induced arrhythmias in cultured adult rat ventricular myocytes; assay type: cell-based; conditions: paced at 1 Hz
Method: FIG. 28. Methanandamide-induced arrhythmias are prevented by over expression of TREK-1 in cultured myocytes. The action potentials of cultured adult rat ventricular myocytes were recorded in current clamp mode during stimulation at 1 Hz.
The action potentials of cultured adult rat ventricular myocytes were recorded in current clamp mode during stimulation at 1 Hz.

[9] = tested on: murine TASK-1; conditions: typical, from Barbuti et al. 2002; cited from earlier work

Compound: CN(C)CCCn1cc(C2=C(c3c[nH]c4ccccc34)C(=O)NC2=O)c2ccccc21 [BIM I, bisindolylmaleimide I]
- effect on C-PAF-sensitive current ([1]; BIM I 100 nM, −10 mV): completely blocked
- effect of PKC inhibitor or inactive analogue on C-PAF-sensitive current ([1]; BIM I 40 and 100 nM, BIM V, −10 mV): blocked in a dose-dependent manner
- effect on methanandamide-sensitive current ([2]; BIM I 100 nM, WT myocytes): significantly reduced
- quiescent WT cells that failed to respond to C-PAF ([3]; BIM I 100 nM, C-PAF 185 nM): 6 of 8
- C-PAF-sensitive current in the presence of PKC inhibitor ([4]; BIM-I 100 nM, C-PAF 185 nM): no measurable C-PAF-sensitive current
- Ki [5]: 14 nM

Compound: CCCCCCCCCCCCCC(=O)O[C@@H]1[C@@H](C)[C@@]2(O)[C@@H](C=C(CO)C[C@]3(O)C(=O)C(C)=C[C@@H]23)[C@@H]2C(C)(C)[C@]12OC(C)=O [PMA, phorbol 12-myristate 13-acetate]
- TASK-1 current density in the presence of drug ([4]; +30 mV, C-PAF 185 nM or PMA 100 nM, no peptide): 59.2±10.1 pA/pF
- inhibition of TASK-1 current ([4]; +30 mV, PMA 100 nM (n=17), C-PAF 185 nM (n=20)): 19.8±2.7%
- TASK-1 current density after drug ([4]; PKCε-inhibitor peptide 100 nM in pipette, C-PAF 185 nM or PMA 100 nM): 41.2±12.3 pA/pF
- TASK-1 current density after drug ([4]; scrambled peptide 100 nM in pipette, PMA 100 nM): 36.6±6.2 pA/pF
- sensitivity of mutant channel to PMA [6]: nor is it sensitive to PMA treatment
- inhibition of T383A channel [7]: not inhibited

Compound: CCCCC/C=C\C/C=C\C/C=C\C/C=C\CCCC(=O)N[C@H](C)CO [methanandamide]
- effect on C-PAF-sensitive current ([1]; held at −10 mV, C-PAF 185 nM, Ba2+ 3 mM, Zn2+ 3 mM, lipids and ATFK 10 μM): inhibited
- methanandamide-sensitive current with PAFR blocked or absent ([2]; methanandamide 10 μM, CV-6209 100 nM or PAFR KO myocytes): fully effective
- quiescent WT myocytes with spontaneous action potentials ([3]; methanandamide 10 μM): 7 of 12
- arrhythmias in control cells expressing only GFP [8]: typical arrythmias were observed
- arrhythmias in myocytes overexpressing GFP and TREK-1 [8]: unable to induce arrhythmias
- inhibition of TASK-1 current [9]: approximately 60%
